# Laboratory results: patent US20050037975A1, “Method for treatment of glutamate related disorders” (priority 1997, published 2005)
# Values joined by “and” are separate entries in the source; they are usually repeats but may differ in a detail not shown here. Equal values may be shown once. Marks after values point to notes of the source that are not given here.
# Columns and labels:
# [1] = tested on: brain glutamate receptors (synaptic membranes); assay: [3H]glutamate binding to mouse brain synaptic membranes in vitro
# Description: Binding Studies—Synaptic membranes (100 μg protein) were isolated (Y. H. Lee et al., J. Neurosci. Res. 40, 797-806 (1995)) form whole brain homogenate of male Swiss Webster mice and were incubated in 0.1 mM L-glutamate for 30 minutes at 25° C. After addition of 50 nM of [^3H]glutamate, incubation was continued for an additional 45 minutes. Reactions were terminated by centrifugation at 4° C. to separate membrane-bound from free radioactivity. […] The rate (k) and maximum percent blockage of glutamate binding (M) by DETC-MeSO (1) during the incubation time (t) was determined by fitting the equation [% inhibition]=M(1−e^−kh) to these day by use of the program Grafit (Erithicus Software Ltd.). This equation was derived for first-order inactivation by a group specific reagent that gives a partial effect. If “A” is the percent of binding activity that remains after extensive exposure (t=of the receptor to excess DETC-MeSO, then M=100−A)e^−kh+A; substituting (100−M) for “A” and [100−% inhibition] for “a” in this equation gives the one employed for purposes of data analyses. […] A second equation was employed in the analysis of binding data that defines partial, irreversible inactivation of two distinct groups of receptors [% inhibition]=M1(1−e^−k1^IT)+M2(1−e^−k1^IT), where M1 and M2 are the maximum amount of inhibition obtained for complete modification of each receptor population and k1 and k2 are the rate constants for these modifications, respectively.
# Six determinations of the effect of DETC-MeSO were made at each concentration tested (1, 5, 10, 50, 100, 200, and 1000 μM) and the average value is shown with error bars for one standard deviation.
# [2] = tested on: oxygen-induced seizures (5 ATA O2); assay: Hyperbaric oxygen-induced seizures in mice; type: in vivo
# Description: Animals—Male Swiss Webster mice (20-30 g) or male Sprague-Dawley rats (250-300 g) were used. All that employed animals were conducted in strict compliance with the NIH guidelines on animal use and institutional regulations concerning animal experimentation. Animals were exposed to hyperbaric oxygen in a specify designed press chamber as previously described (M. D. Faiman et al., Biochem. Pharmacol., 20, 3049-3067 (1971); M. D. Faiman et al. Aerosp. Med.,45, 29032.(1974)). The time to first clonic-tonic seizure after brining animals to a final pressure of five atmospheres of 100% oxygen or after intraperitoneal injection of convulsants was noted by. criteria outlined previously (M. D. Faiman et al. (1971), supra M. D. Faiman et al. (1974), supra). Unless otherwise specified, the ability of DETC-MeSO to prevent seizures was tested by intraperitoneal injection of 5.2 mg/kg of DETC-MeSO 1-2 hours prior to bringing the animal to a final pressure of 5 atmospheres of 100% oxygen or intraperitoneal injection of N-methyl-D-asparate (NMA) (125 mg/kg) r L-methionine sulfoximine (MetSOX) (250 mg/kg). Evaluation of the statistics for whole animal experiments or for changes in brain glutamate binding after administration of DETC-MeSO was conducted by use of the program GraphPAD InStat from Graph PAD Software (San Diego, Calif.).
# [3] = target: T1, rat liver mitochondrial low Km ALDH (Rattus norvegicus, UniProt P11884); assay: Liver aldehyde dehydrogenase determined in vivo; details: intraperitoneal (IP), liver taken eight hours later
# T1 construct: differential centrifugation carried out to isolate the mitochondrial faction; from tissue; host or cells: liver mitochondria of male Sprague-Dawley derived rats
# T1 sequence (P11884 20-519): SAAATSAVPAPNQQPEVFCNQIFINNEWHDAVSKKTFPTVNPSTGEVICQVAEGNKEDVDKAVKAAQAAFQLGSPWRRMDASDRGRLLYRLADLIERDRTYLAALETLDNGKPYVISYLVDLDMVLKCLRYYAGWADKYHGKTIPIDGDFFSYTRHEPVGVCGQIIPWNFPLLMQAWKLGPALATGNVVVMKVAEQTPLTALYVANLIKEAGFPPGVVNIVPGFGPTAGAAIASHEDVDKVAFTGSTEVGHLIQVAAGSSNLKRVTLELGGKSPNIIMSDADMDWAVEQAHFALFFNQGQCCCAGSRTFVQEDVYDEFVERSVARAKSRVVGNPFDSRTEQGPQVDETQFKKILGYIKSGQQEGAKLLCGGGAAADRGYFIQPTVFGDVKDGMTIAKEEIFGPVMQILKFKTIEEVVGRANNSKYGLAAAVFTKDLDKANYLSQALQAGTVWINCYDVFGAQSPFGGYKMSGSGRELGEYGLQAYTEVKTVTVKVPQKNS
# Description: To determine if a compound of formula (I) can inhibit aldehyde dehydrogenase activity in vivo, doses of DETC-Me SO (1.3 mg/kg, 2.6 mg/kg, 5.2 mg/kg, 10.3 mg/kg and 20.6 mg/kg), were administered to male Sprague Dawley derived rats weighing 200-400 g. The rats were bred from a resident colony maintained in the Animal Care Unit at the University of Kansas. Rats were maintained on a 12-hour lights cycle with access to food and water ad lib until the night before an experiment, at which time food was removed. Animals were fasted for 12 hours prior to drug administration.
# All experiments were carried out in the morning. Rats were treated with the doses of DETC-Me SO or DETC-Me described above, which were dissolved in polyethylene glycol 200. Eight hours later, the rats were anesthetized with carbon-dioxide and then decapitated. The liver was quickly removed and the low Km aldehyde dehydrogenase determined. Control rats were treated with […] vehicle only, and each control data point also represents an average of four rats.
# The liver from drug-treated and control rats was homogenized in 0.25 M sucrose and differential centrifugation was carried out to isolate the mitochondrial fraction. The mitochondria were solubilized with sodium deoxycholate, and mitochondrial low Km and total (high and low) aldehyde dehydrogenase activity determined by the method of S. O. C. Tottmar et al., cited above.
# [4] = double exponential fit, nominal values
structure (smiles),measurement,setting,value
"CCN(CC)C(=O)[S+](C)[O-] (stereo not drawn) [DETC-MeSO, S-Methyl-N,N-Diethylthiolcarbamate Sulfoxide]",inhibition of glutamate binding,"[1]; 0.1 mM, absence of glycine (FIG. 2)",53%
same,irreversible blockage of glutamate binding,"[1]; 0.1 mM, in the presence of glycine (0.1 mM)",48±3%
same,"M1, maximum inhibition of first receptor population",[1]; [4],15%
same,"M2, maximum inhibition of second receptor population",[1]; [4],43%
same,"k1, rate constant of first receptor population",[1]; [4],900 M⁻¹ s⁻¹ and 901 M⁻¹ s⁻¹
same,"k2, rate constant of second receptor population",[1]; [4],8 M⁻¹ s⁻¹
same,effect on glutamate binding to synaptic membrane preparations,"[1]; in vitro, without glycine","time-dependent, partial, and irreversible loss of their ability to bind glutamate"
same,rate (k) of blockage of glutamate binding,[1]; single exponential fit,25±10 M^−s^−1
same,maximum percent blockage of glutamate binding (M),"[1]; single exponential fit, 1-1000 μM",58±7%
same,effect on oxygen-induced seizures,"[2]; 5.2 mg/kg i.p. 2 hours before 5 atmospheres of 100% oxygen, mice",prevented the seizures
same,number of animals that exhibited the effect/total number of animals in the group,"[2]; 5 ATA 100% O2, mice",(0/5)^a
same,mean time to seizure,"[2]; 5 ATA 100% O2, mice, 5.2 mg/kg i.p. prior, observation one hour",>60^a min
same,dose required to inhibit 50% of the low Km ALDH,[3],3.6 mg/kg
